Data on eight molecules can be found in ChEMBL document CHEMBL1201862, “PubChem BioAssay data set” (2004).

Test systems include BT-549; EKVX; HCC 2998; HCT-15; HL-60; MDA-N; Malme-3M; NCI-H23; NCI-H522; NCI/ADR-RES; OVCAR-3; RXF 393; SK-MEL-2; SK-MEL-5; SR; SW-620; T47D; TK-10; U-251.
What all share (experiment): inhibition of tumour cell growth, NCI panel, 48 h

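1) Cells in 96-well plates. 2) Compound, 48 h, 5 concentrations. 3) Linear interpolation between surrounding doses. 4) Unreached endpoint = highest concentration. GI50 = concentration required for 50% inhibition of growth.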 Calls of active or inactive are those of the source. No stated cut-off is given here; in the data, active = GI50 up to about 1.1 µM and inactive = higher.

On to `NS(=O)(=O)c1ccc(NNc2c3ccccc3nc3ccccc23)cc1`, for which the GI50 in the assay on BT-549 was 10.3 µM (inactive); in the assay with EKVX it was 12.5 µM (inactive); in the assay with HCC 2998, 12.2 µM (inactive); with HCT-15, 10 µM; in the assay with HL-60, 8.63 µM (inactive); in the assay with MDA-N, 12.9 µM (inactive). For the same molecule, the GI50 in the assay on Malme-3M is 11.2 µM (inactive); with NCI-H23, 13.6 µM (inactive); with NCI-H522 it was 11.4 µM (inactive); in the assay with NCI/ADR-RES, 14 µM (inactive); with OVCAR-3, 10.2 µM (inactive); with RXF 393, 13.2 µM (inactive). Also, the GI50 in the assay on SK-MEL-2 was 13.5 µM (inactive); in the assay with SK-MEL-5, 12.7 µM (inactive); in the assay with SR, 10.8 µM (inactive); with SW-620 it was 10.9 µM (inactive); in the assay with T47D, 7.52 µM (inactive); in the assay on TK-10, 18.8 µM (inactive). The GI50 in the assay on U-251 was 11.7 µM (inactive).

Take `O=[N+]([O-])c1cc(F)ccc1Sc1ccccc1`: the GI50 is > 10 µM (inactive) with BT-549; > 10 µM (inactive) with EKVX; > 10 µM (inactive) in the assay on HCC 2998; > 10 µM in the assay on HCT-15; > 10 µM (inactive) in the assay on HL-60; > 10 µM (inactive) with MDA-N. Also, the GI50 with Malme-3M, in the assay on NCI-H23, in the assay with NCI-H522, in the assay with NCI/ADR-RES, in the assay with OVCAR-3 and in the assay on RXF 393 was > 10 µM (inactive) in each case. Moreover, the GI50 in the assay on SK-MEL-2, with SK-MEL-5, in the assay with SR, in the assay with SW-620, in the assay on T47D and in the assay on TK-10 was > 10 µM (inactive) each time. The GI50 with U-251 is > 10 µM (inactive).

In the case of `CN1CCN(C(=O)c2cn(Cc3cncn3Cc3ccc4c(c3)OCO4)cc2-c2cccc3ccccc23)CC1`, the GI50 in the assay with BT-549 was 9.75 µM (inactive); with EKVX, 15.3 µM (inactive); with HCC 2998, 10.6 µM (inactive); in the assay on HCT-15, 17 µM; with HL-60, 0.337 µM (active); in the assay with MDA-N, 0.378 µM (active). The GI50 was 3.33 µM (inactive) in the assay on Malme-3M; 12.2 µM (inactive) in the assay with NCI-H23; 5.86 µM (inactive) in the assay on NCI-H522; 28.2 µM (inactive) in the assay on NCI/ADR-RES; 25.5 µM (inactive) in the assay with OVCAR-3; 30 µM (inactive) in the assay on RXF 393. In addition, the GI50 was 0.268 µM (active) in the assay on SK-MEL-2; 9.04 µM (inactive) in the assay with SK-MEL-5; 0.0237 µM (active) with SR; 13.9 µM (inactive) with SW-620; 15.7 µM (inactive) in the assay on T47D; 29.1 µM (inactive) in the assay with TK-10. Also, in the assay with U-251, the GI50 was 7.73 µM (inactive).

`COc1ccc2c(c1)NC1(CCN(CCCC(=O)c3ccc(F)cc3)CC1)N=N2`: the GI50 in the assay with BT-549 was 26.4 µM (inactive); in the assay on EKVX, 32.2 µM (inactive); in the assay on HCC 2998, 14.8 µM (inactive); in the assay with HCT-15 it was 20.8 µM; with HL-60, 15.2 µM (inactive); with MDA-N, 17.7 µM (inactive). Moreover, the GI50 is 15.2 µM (inactive) in the assay with Malme-3M; 25.8 µM (inactive) in the assay with NCI-H23; 16.9 µM (inactive) in the assay with NCI-H522; 24.4 µM (inactive) in the assay with NCI/ADR-RES; 23.3 µM (inactive) in the assay on OVCAR-3; 16.6 µM (inactive) in the assay with RXF 393. Also, the GI50 was 17.9 µM (inactive) in the assay on SK-MEL-2; 12.6 µM (inactive) in the assay with SK-MEL-5; 15.7 µM (inactive) in the assay on SR; 23.8 µM (inactive) in the assay on SW-620; 22.2 µM (inactive) in the assay on T47D; 20.7 µM (inactive) in the assay with TK-10. For the same molecule, the GI50 with U-251 is 19.2 µM (inactive).

For `COc1cc(OC)cc(Oc2nc3ccccc3nc2C(F)(F)F)c1`, the GI50 was > 100 µM (inactive) in the assay on BT-549; > 100 µM (inactive) with EKVX; > 100 µM (inactive) in the assay with HCC 2998; 51.4 µM with HCT-15; 22.3 µM (inactive) in the assay on HL-60; 3.66 µM (inactive) in the assay with MDA-N. In addition, the GI50 was > 100 µM (inactive) with Malme-3M; > 100 µM (inactive) with NCI-H23; > 100 µM (inactive) in the assay on NCI-H522; > 100 µM (inactive) in the assay on NCI/ADR-RES; > 100 µM (inactive) in the assay on OVCAR-3; 19.5 µM (inactive) with RXF 393. The GI50 with SK-MEL-2 was 48.6 µM (inactive); in the assay on SK-MEL-5 it was 76.7 µM (inactive); in the assay with SR, 6.1 µM (inactive); with SW-620 it was 20.4 µM (inactive); in the assay with T47D, > 100 µM (inactive); in the assay on TK-10, > 100 µM (inactive). Also, in the assay with U-251, the GI50 is 27.2 µM (inactive).

For the molecule `CC1C(=O)OC2CC[N+]3([O-])CC=C(COC(=O)C(C)(O)C1(C)O)C23` (configuration not stated), the GI50 is > 100 µM (inactive) in the assay with BT-549; > 100 µM (inactive) in the assay on EKVX; > 100 µM (inactive) with HCC 2998; > 100 µM in the assay on HCT-15; > 100 µM (inactive) in the assay on HL-60; > 100 µM (inactive) in the assay on MDA-N. In addition, the GI50 with Malme-3M, in the assay on NCI-H23, with NCI-H522, in the assay on NCI/ADR-RES, with OVCAR-3 and with RXF 393 was > 100 µM (inactive) each time. The GI50 in the assay on SK-MEL-2 is > 100 µM (inactive); in the assay on SK-MEL-5, > 100 µM (inactive); in the assay with SR, 95.7 µM (inactive); in the assay on SW-620 it was > 100 µM (inactive); in the assay with T47D, > 100 µM (inactive); in the assay on TK-10, > 100 µM (inactive). Further, in the assay on U-251, the GI50 is > 100 µM (inactive).

In the case of `CCCC(=O)NC(Nc1ccc(S(=O)(=O)Nc2nc(C)cc(C)n2)cc1)(C(F)(F)F)C(F)(F)F`, the GI50 with BT-549 was > 100 µM (inactive); in the assay on EKVX, > 100 µM (inactive); in the assay on HCC 2998 it was > 100 µM (inactive); in the assay with HCT-15 it was > 100 µM; with HL-60, > 100 µM (inactive); in the assay on MDA-N it was > 100 µM (inactive). For the same molecule, the GI50 with Malme-3M, in the assay on NCI-H23, in the assay with NCI-H522, in the assay with NCI/ADR-RES, in the assay with OVCAR-3 and with RXF 393 was > 100 µM (inactive) in each case. The GI50 in the assay on SK-MEL-2, with SK-MEL-5, with SR, in the assay on SW-620, in the assay on T47D and with TK-10 was > 100 µM (inactive) throughout. For the same molecule, the GI50 with U-251 was > 100 µM (inactive).

For `CCc1nc(N)nc(N)c1-c1ccc(N(C)Cc2ccccc2)c([N+](=O)[O-])c1`, the GI50 with BT-549 is 4.9 µM (inactive); with EKVX it was 1.16 µM (inactive); in the assay on HCC 2998, 0.345 µM (active); in the assay on HCT-15 it was < 0.01 µM; in the assay on HL-60, < 0.01 µM (active); with MDA-N, 0.0243 µM (active). Also, the GI50 with Malme-3M is 2.22 µM (inactive); in the assay with NCI-H23, 0.0708 µM (active); in the assay with NCI-H522, 1.15 µM (inactive); with NCI/ADR-RES, 0.184 µM (active); with OVCAR-3, 0.697 µM (active); in the assay on RXF 393, 3.61 µM (inactive). The GI50 in the assay on SK-MEL-2 is 7.74 µM (inactive); with SK-MEL-5, 0.022 µM (active); in the assay on SR, 0.0187 µM (active); in the assay on SW-620 it was 0.0155 µM (active); with T47D it was 1.71 µM (inactive); with TK-10, 7.13 µM (inactive). Moreover, in the assay with U-251, the GI50 was 0.0374 µM (active).
